Article PMC11678797, “A Repurposed Drug Selection Pipeline to Identify CNS-Penetrant Drug Candidates for Glioblastoma” (Pharmaceuticals, 2024)

Tests used:
[1] = tested on: GS607 glioblastoma patient-derived cell culture; assay: In vitro drug screening, cell viability by CellTiter GLO 2.0 after 5 days; type: cell-based; conditions: Homo sapiens, 120 h, 5 days incubation
Description: (§1) Glioblastoma stem-like cell cultures (GSC) were derived from primary brain tumor samples received directly from the operating room. Tumor classification was performed by the local neuropathologist according to guidelines of the WHO 2007 and 2016 classification of primary brain tumors. The use of patient tissue for this study was approved by the local ethics committee and all patients signed informed consent forms according to the guidelines of the Institutional Review Board. Samples were processed as described previously. The GBM8 cell line was kindly provided by dr. Hiroaki Wakimoto (Massachusetts General Hospital, Boston, MA, USA). All cell cultures were grown in Dulbecco’s modified Eagle’s medium (DMEM)–F12 with 1% penicillin/streptomycin, B27 (Invitrogen), human epidermal growth factor (EGF; 5 μg/mL), human basic fibroblast growth factor (FGF; 5 μg/mL) (both from Tebu-Bio) and heparin ([…]; Sigma-Aldrich, St. Louis, MI, USA).
(§2) Glioma stem-like cell cultures were cultured under serum free conditions according to Verheul et al.. Cells were seeded in 96-well plates (Greiner bio-one, Kremsmünster, Austria) coated with extracellular matrix (BD Bioscience, Becton Drive Franklin Lakes, NJ, USA) at 1000 cells/well. A stock solution of OMA was diluted in a serum-free cell culture medium to obtain a starting concentration of 8 μM in 0.1% DMSO. Serial dilutions of OMA and DMSO were added to the wells 24 h later for an incubation period of 5 days. Cell viability was measured by the CellTiter GLO 2.0 and dose–response curves and IC50 values were calculated using GraphPad Prism version 9. All experiments were performed in 3 biological replicates.
(§3) GraphPad Prism software version 9.5 (GraphPad Software) was used for calculating IC50 values using nonlinear regression (curve-fit). GraphPad Prism was used to determine whether there was a statistically significant difference in OMA concentration and the B/P ratio between the L and R hemispheres of mice bearing GS832, GS607 and GBM8 tumors, using an unpaired t-test. […]

[2] = tested on: GS832 glioblastoma patient-derived cell culture; assay: as above; type: cell-based; conditions: Homo sapiens, 120 h, 5 days incubation
Description: as §1, §2, §3

murine BCRP (Abcg2) = molecular target: T1, murine BCRP (Abcg2) (Mus musculus, UniProt Q7TMS5); assay: Concentration equilibrium transport assay (CETA), MDCK cells transduced with murine Abcg2, with zosuquidar; type: in vitro ADME; conditions: omacetaxine 100 nM, zosuquidar 1 μM, up to 4 h
T1 construct: expressed in transfected cells; host or cells: MDCK type II (canine kidney) cells transduced with murine Abcg2 (MDCK-Bcrp1)
T1 sequence (Q7TMS5 1-657): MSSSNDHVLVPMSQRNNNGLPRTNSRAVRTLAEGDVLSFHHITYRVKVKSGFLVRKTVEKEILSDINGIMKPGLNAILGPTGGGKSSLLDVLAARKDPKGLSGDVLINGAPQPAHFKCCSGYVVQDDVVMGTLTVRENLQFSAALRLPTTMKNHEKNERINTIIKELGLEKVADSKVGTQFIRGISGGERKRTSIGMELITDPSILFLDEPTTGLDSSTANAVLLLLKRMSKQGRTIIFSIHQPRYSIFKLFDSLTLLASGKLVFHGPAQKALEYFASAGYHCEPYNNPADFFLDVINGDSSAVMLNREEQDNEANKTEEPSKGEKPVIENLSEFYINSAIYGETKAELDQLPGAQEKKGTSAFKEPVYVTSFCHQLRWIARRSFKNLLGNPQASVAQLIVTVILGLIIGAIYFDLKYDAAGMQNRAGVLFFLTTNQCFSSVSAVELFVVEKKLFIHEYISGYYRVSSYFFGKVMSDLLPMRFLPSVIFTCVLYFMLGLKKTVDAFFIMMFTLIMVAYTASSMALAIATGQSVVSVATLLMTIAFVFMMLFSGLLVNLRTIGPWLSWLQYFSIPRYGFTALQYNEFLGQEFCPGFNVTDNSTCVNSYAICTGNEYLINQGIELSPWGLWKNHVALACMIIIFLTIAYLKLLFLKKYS
Description: In vitro transport studies were performed using the LLC pig kidney cell line (LLC-PK1) and sub-lines transduced with murine Abcb1a (LLC-Mdr1a) or human ABCB1 (LLC-MDR1). Similarly, in vitro transport studies were conducted in the parental Madin–Darby canine kidney (MDCK) type II cell line (MDCK-Parent) and murine Abcg2 (MDCK-Bcrp1) or human ABCG2 (MDCK-BCRP) transduced sublines. Concentration equilibrium transport assays (CETA) were performed as previously described. Briefly, cells were grown on polycarbonate membrane filters (3.0 µm pores, 24 mm diameter; Costar Corning, NY, USA) for 4 days. Next, 2 mL of MEM medium containing 10% FCS and omacetaxine (100 nM) was added to both the apical and basal compartments. Then, [14C]-inulin ([…]) was added basolateral to check the membrane integrity. Zosuquidar 1 μM was added to all wells containing MDCK cells to inhibit endogenous (canine) ABCB1. […] The integrity of the membrane was checked by taking 20 μL samples from both apical and basolateral sides for radioactivity counting. […] OMA concentrations were measured using an LC-MS/MS system that consisted of an UltiMate 3000 LC System (Dionex, Sunnyvale, CA, USA) and an API 4000 mass spectrometer (Sciex, Framingham, MA, USA).

[3] = humans, cited from earlier work

Which results are given for `COC(=O)C[C@](O)(CCCC(C)(C)O)C(=O)O[C@@H]1C(OC)=C[C@]23CCCN2CCc2cc4c(cc2[C@H]13)OCO4` [OMA, Omacetaxine mepesuccinate]?
IC50 [1]: 22.9 nM; IC50 [2]: 4.9 nM; substrate of BCRP (translocation between apical and basolateral compartments) (murine BCRP (Abcg2)): not a substrate; time to reach Cmax plasma ([3]; s.c. administration): 1 h; Cmax ([3]; DrugBank, read-out: reported Cmax plasma value): 43 nM; half-life [3]: 7 h
